From patent EP1566447A1, “Glimepiride- and insulin-induced glycosylphosphatidylinositol-specific phospholipase C regulation” (priority 2004, dated 2005)
“Also recorded” adds a separate entry of the source.

Experiments:
IRS-1 and pp59^Lyn = experiment: tyrosine phosphorylation of pp59^Lyn and IRS-1; assay type: cell-based, rat
Procedure: Polypeptides separated by SDS-PAGE were transferred to polyvinylidene difluoride membranes using the semidry procedure as described in "Müller, G. et al., (2001) Mol. Cell. Biol. 21: 4553-4567". Washed membranes were incubated anti-caveolin-1 (1:2000), anti-pp59^Lyn (1:1250), anti-aP (1:500), anti-5'-Nuc (1:750) and anti-IRS-1 (1:2000) antibodies for 4 h at 15°C. Washed membranes were incubated with horseradish peroxidase-coupled secondary goat anti-mouse (1:2000) or goat anti-rabbit IgG (1:4000) antibodies. Labeled proteins were visualized by enhanced chemiluminescence.
Fig. 7: Effect of GPI-2350 on the glimepiride/insulin-induced activation of signaling proteins. Isolated rat adipocytes were treated (5 min, 37°C) without or with GPI-2350 (Panels A, 50 µM; Panels B, increasing conc.) and then incubated (120 min, 37°C) in the absence or presence of insulin (10 nM) or glimepiride (20 µM). IRS-1 and pp59^Lyn were immunoprecipitated from the defatted postnuclear infranatant (see Materials and Methods) and solubilized combined hc/IcDIGs, respectively, and then immunoblotted for phosphotyrosine. […]

[1] = stability of the compound in solvents and as a solid; assay type: physicochemical
Procedure: As starting material, racemic 1,4,5,6-tetra-O-benzyl-myo-inositol (thereinafter: compound 1) was prepared by a procedure as disclosed in "Zhai, H.-X. et al. (1995) Tetrahedron Lett. 36: 7403-7406". Compound 1 was then phosphorylated with dodecylphosphonic dichloride in the presence of triethylamine and dimethyl-aminopyridine to yield tetra-O-benzyl-myo-inositol-1,2-cyclo-dodecylphosphonic acid (thereinafter: compound 2). By catalytic hydrogenation with 10% Pd on charcoal compound 2 was debenzylated to myo-inositol-1,2-cyclo-dodecylphosphonic acid (thereinafter: compound 3 or GPI-2350) as a mixture of diastereomeres. For synthesis of compound 2 (Fig. 1), 1 g (1.8 mmol) of compound 1 was dissolved in 60 ml of methylene chloride and 1 ml of triethylamine, 200 mg dimethyl-aminopyridine and 1 g ([…]) of dodecylphosphonic dichloride were added. This reaction solution was allowed to stand (45 min, room temperature). Then 50 ml of ethyl acetate were added and the mixture was filtrated on silical gel. After concentration of the solvent, the residue was purified by flash chromatography (n-heptane/ethyl acetate, 1/1, by vol.). Yield of compound 2: 580 mg (43 %) of a white amorphous solid. TLC: n-heptane/ethyl acetate (1/1, by vol.), Rf = 0.7. MS: (M + Li)^+ = 761.4, calculated […], M = 754.9. […] MS: (M + Li)^+ = 401.2, calculated C18H35O7P, M = 394.4.

GPI-PLC = conditions: read-out: IC50 for inhibition of the GPI-PLC; isolated intact hcDIGs; Fig. 4 Panels B, D
[2] = tested on: GPI-PLC of hcDIGs from rat adipocytes; experiment: adipocyte GPI-PLC assay (cleavage of AChE, TX-114 partitioning); assay type: biochemical
Procedure: Biophys. […] Each reaction mixture was subjected to TX-114 partitioning (see below).
After incubation for 1 h on ice, the mixture was layered onto a cushion of 0.4 ml of 0.25 M sucrose and 25 mM Tris/HCl (pH 7.4) on ice.
Cleavage rate was calculated from the amount of hydrophilic AChE and aP activity recovered with the TX-114-depleted phase upon TX-114 partitioning.

rat adipocytes = experiment: glucose transport assay; assay type: cell-based
Procedure: Glucose transport was determined as described in "Müller, G. et al., (1994) J. Cell Biol. 126: 1267-1276" by incubation of 10,000-20,000 washed adipocytes with 2-deoxy-D-[2,6-^3H]glucose at 50 µM final conc. (0.33 µCi/ml) in 50-µl portions for 20 min at 37°C in the absence or presence of 20 µM cytochalasin B.
Table 3: Isolated rat adipocytes were incubated in the presence of methyl-β-cyclodextrin (m-β-CD, 10 mM, 50 min), CBDP (300 µM, electroporation, followed by washing and subsequent incubation for 30 min), PIG41 (10 µM, 15 min), sodium orthovanadate (1 mM, 15 min), trypsin (10 µg/ml, 15 min followed by treatment with 0.5 M NaCl and subsequent washing) and N-ethylmaleimide (1 mM, 5 min followed by addition of DTT). After addition of GPI-2350 (50 µM final conc.) to one half of the adipocyte suspension and further incubation (60 min, 37°C), portions of the cells were assayed for 5'-Nuc activity in the isolated IcDIGs. The increase in 5'-Nuc during the basal incubation was set at 100 arb. units. Other portions of the cells (after 15 min incubation) were assayed for glucose transport which was set at 100 arb. units for the basal incubation. Means ± SD of at least 3 independent cell incubations with activity measurements in triplicate each are given.
Fig. 8: Effect of GPI-2350 on the glimepiride/insulin-induced metabolic activity. Isolated rat adipocytes were treated (5 min, 37°C) without or with GPI-2350 (Panel A, 50 µM; Panel B, increasing conc.; Panel C, 5 µM, 50 µM) and then incubated (15 min, 37°C) in the absence or presence of insulin (Ins, 10 nM) or glimepiride (Gli, 20 µM or increasing conc.) as indicated. The adipocytes were then assayed for glucose transport and isoproterenol-induced lipolysis. The activity is given relative to the absence of GPI-2350 in the control reaction (Panels A, basal) or in the insulin- and glimepiride-stimulated state (Panels B and C, set at 100). Means ± SD of at least 5 independent cell incubations with activity measurements in triplicate each are given.

## CCCCCCCCCCCCP1(=O)O[C@@H]2[C@H](O)[C@@H](O)[C@H](O)[C@@H](O)[C@@H]2O1 (mixture of isomers) [GPI-2350, myo-inositol-1,2-cyclo-dodecylphosphonic acid]
IRS-1 and pp59^Lyn; 50 µM
  effect on tyrosine phosphorylation of pp59^Lyn and IRS-1 in response to glimepiride: almost complete blockade
IRS-1 and pp59^Lyn; insulin-stimulated
  effect on metabolic insulin signaling (tyrosine phosphorylation of IRS-1 and inhibition of lipolysis): only marginally reduced
[1]
  stability in acidic vs. basic solvents: less stable in acidic than basic solvents
[1]; methanol
  stability in methanol: for days
GPI-PLC
  IC50: 1000 nM
[2]; 1 mM, hcDIGs from rat adipocytes
  inhibition % at 1 mM: 95 ± 11%
[2]; hcDIGs from rat adipocytes, inhibitor 0.05 µM - 1 mM
  IC50: 200 to 500 nM
[2]; hcDIGs treated with 50 µM, reisolated, extensively washed, assayed without inhibitor, data not shown
  lipolytic cleavage toward AChE after pretreatment and washing: only low lipolytic cleavage
Rat adipocytes; 50 µM
  effect on stimulation of glucose transport in response to glimepiride: almost complete blockade; also recorded: lower than control values
Rat adipocytes; Rattus norvegicus, Adipocyte
  IC50: 2000 to 5000 nM
Rat adipocytes; Rattus norvegicus, Adipocyte, 50 µM, insulin 10 nM, read-out: reduction of insulin stimulation of glucose transport
  inhibition at 50 µM: ≤ 25%
